Results published in ChEMBL document CHEMBL2150982, “Synthesis and SAR of 1-hydroxy-1H-benzo[d]imidazol-2(3H)-ones as Inhibitors of D-Amino Acid Oxidase” (ACS Med Chem Lett, 2012).
pIC50: −log10 of the molar value.

Tests used:
D-amino-acid oxidase [1] = molecular target: D-amino-acid oxidase (Homo sapiens, UniProt P14920); experiment: Inhibition of human recombinant DAAO expressed in HEK293 cells using D-serine as substrate after 20 mins by horseradish peroxidase-coupled assay
D-amino-acid oxidase [2] = molecular target: D-amino-acid oxidase (Sus scrofa, UniProt P00371); experiment: Inhibition of pig DAAO using D-serine as substrate after 20 mins by horseradish peroxidase-coupled assay
D-amino-acid oxidase (Sus scrofa, UniProt P00371), sequence (P00371 whole entry): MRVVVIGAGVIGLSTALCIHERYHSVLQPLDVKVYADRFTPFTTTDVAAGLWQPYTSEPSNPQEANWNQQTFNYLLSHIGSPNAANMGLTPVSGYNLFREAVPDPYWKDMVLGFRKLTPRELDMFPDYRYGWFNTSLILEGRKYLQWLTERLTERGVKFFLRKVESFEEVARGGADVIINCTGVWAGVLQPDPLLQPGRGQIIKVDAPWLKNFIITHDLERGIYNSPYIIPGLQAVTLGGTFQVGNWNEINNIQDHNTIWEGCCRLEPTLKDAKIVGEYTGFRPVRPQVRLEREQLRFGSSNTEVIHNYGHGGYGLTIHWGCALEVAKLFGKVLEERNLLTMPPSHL

Plasma = experiment: (§1) Metabolic stability in mouse plasma assessed as compound remaining at 5 uM after 1 hr by LC/MS/MS analysis; assay type: ADME, cell-free; details: 1 h, 5 µM
Mus musculus [3] = experiment: Pharmaco-enhancing activity in CD1 mouse assessed as increase in D-serine level in plasma at 30 mg/kg, po relative to control; assay type: ADME, organism-based; set-up: dose 30 mg/kg, route oral; details: in vivo
Liver [4] = experiment: (§2) Metabolic stability in mouse liver microsomes assessed as compound remaining at 5 uM after 1 hr by LC/MS/MS analysis in presence of NADPH; assay type: ADME, Microsome; details: microsomes, 1 h, 5 µM
Liver [5] = experiment: Metabolic stability in mouse liver microsomes assessed as compound remaining at 5 uM after 1 hr by LC/MS/MS analysis in presence of UDPGA; assay type: ADME, Microsome
[6] = Metabolic stability in mouse liver microsomes assessed as compound remaining at 5 uM after 1 hr by LC/MS/MS analysis; assay type: ADME, Microsome; details: read-out: Stability
[7] = as §1; assay type: ADME, cell-free; details: read-out: Stability
Mus musculus [8] = experiment: Pharmaco-enhancing activity in CD1 mouse assessed as increase in D-serine level in plasma at 30 mg/kg, po measured up to 2 hrs relative to control; assay type: ADME, organism-based; set-up: dose 30 mg/kg, route oral; details: in vivo
[9] = as §2; assay type: ADME, Microsome; details: liver microsomes, read-out: Stability
Mus musculus [10] = experiment: Pharmaco-enhancing activity in CD1 mouse assessed as increase in D-serine level in plasma at 30 mg/kg, po measured at 30 mins relative to control; assay type: ADME, organism-based; set-up: dose 30 mg/kg, route oral; details: in vivo, 0.5 h

D-amino-acid oxidase (Homo sapiens, UniProt P14920), sequence (P14920 whole entry): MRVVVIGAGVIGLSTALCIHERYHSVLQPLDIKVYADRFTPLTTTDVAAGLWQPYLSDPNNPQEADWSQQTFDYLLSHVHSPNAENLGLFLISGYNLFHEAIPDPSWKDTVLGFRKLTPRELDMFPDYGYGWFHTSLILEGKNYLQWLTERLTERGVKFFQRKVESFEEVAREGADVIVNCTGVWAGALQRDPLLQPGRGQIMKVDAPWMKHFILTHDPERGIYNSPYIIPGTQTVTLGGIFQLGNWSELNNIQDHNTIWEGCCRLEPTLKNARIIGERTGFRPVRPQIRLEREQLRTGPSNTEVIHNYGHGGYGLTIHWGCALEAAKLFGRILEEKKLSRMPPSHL

Structure (SMILES) | pIC50 (D-amino-acid oxidase [1]) | pIC50 (D-amino-acid oxidase [2]) | other results
O=c1[nH]c2cccnc2n1O | 4.52 | – | –
Nn1c(=O)[nH]c2ccccc21 | < 4.00 | – | –
COn1c(=O)[nH]c2ccccc21 | < 4.00 | – | –
O=c1[nH]c2ncccc2n1O | 6.00 | – | –
O=c1[nH]c2c(F)cccc2n1O | 7.00 | 6.30 | –
COc1cccc2c1[nH]c(=O)n2O | 7.00 | 6.40 | Stability (Plasma): 90%; Activity (Mus musculus [3]): Not Active; Stability (Liver [4]): 60%; Stability (Liver [5]): Unstable; remaining at 1 h, 5 µM [6]: 100%
CCOc1cccc2c1[nH]c(=O)n2O | 4.30 | 4.30 | –
CCCc1cccc2c1[nH]c(=O)n2O | 4.70 | 4.52 | –
Cc1ccc2c([nH]c(=O)n2O)c1C | 4.70 | 6.00 | –
Cc1cc(C)c2[nH]c(=O)n(O)c2c1 | 4.70 | 5.40 | –
O=c1[nH]c2c(F)cc(F)cc2n1O | 7.10 | 6.40 | remaining at 1 h, 5 µM [7]: 100%; Activity (Mus musculus [8]): Active; remaining at 1 h, 5 µM [9]: 100%; Stability (Liver [5]): 0.6%; remaining at 1 h, 5 µM [6]: 100%; Activity (Mus musculus [10]): Active
Cc1ccc2c(c1)[nH]c(=O)n2O | 5.40 | 5.40 | –
Cc1cc2[nH]c(=O)n(O)c2cc1F | 5.70 | 6.00 | –
O=c1[nH]c2cc3c(cc2n1O)CCC3 | 4.52 | 5.00 | –
Cc1ccc2[nH]c(=O)n(O)c2c1 | 4.52 | 5.15 | –
O=c1[nH]c2ccc(F)c(F)c2n1O | 5.10 | 4.70 | –
O=c1[nH]c2ccc3c(c2n1O)CCC3 | < 4.00 | < 4.00 | –
O=c1[nH]c2cccc(F)c2n1O | 5.52 | 4.70 | –
O=C1Cc2ccccc2N1O | < 4.00 | – | –

Now from value to compound, other results behind:

pIC50 (D-amino-acid oxidase [1]) | pIC50 (D-amino-acid oxidase [2]) | Structure (SMILES) | other results
< 4.00 | – | Oc1nc2ccccc2[nH]1 | –
< 4.00 | – | Cn1c(=O)n(O)c2ccccc21 | –
< 4.00 | – | O=C1Nc2ccccc2C1O (stereo unspecified) | –
4.15 | – | O=c1[nH]c2ccncc2n1O | –
6.22 | 6.00 | O=c1[nH]c2ccccc2n1O | –
6.70 | 6.40 | Cc1cccc2c1[nH]c(=O)n2O | –
4.10 | 4.70 | CCc1cccc2c1[nH]c(=O)n2O | –
5.00 | 4.30 | O=c1[nH]c2c(Cc3ccccc3)cccc2n1O | –
4.70 | 5.00 | CC(C)c1cccc2c1[nH]c(=O)n2O | –
< 4.00 | 4.40 | CCC(C)c1cccc2c1[nH]c(=O)n2O (stereo unspecified) | –
7.15 | 6.15 | Cc1c(F)ccc2c1[nH]c(=O)n2O | –
6.10 | 6.70 | O=c1[nH]c2c3c(ccc2n1O)CCO3 | –
6.05 | 6.00 | O=c1[nH]c2cc(F)ccc2n1O | –
4.15 | 4.52 | O=c1[nH]c2cc(F)c(F)cc2n1O | –
6.40 | 6.22 | O=c1[nH]c2ccc(F)cc2n1O | –
5.05 | 5.70 | O=c1[nH]c2ccc(Cl)cc2n1O | –
< 4.00 | < 4.00 | Cc1c(F)ccc2[nH]c(=O)n(O)c12 | –
4.40 | < 4.00 | Cc1cccc2[nH]c(=O)n(O)c12 | –
